Tests used:
Assay type in all cases: in vivo, C57BL/6J mouse
Akkermansia = experiment: Metagenome analysis of feces in high-fat diet induced obesity model: proportion of Akkermansia; details: for Akkermansia Average (%): feces after 8 weeks
Procedure: (§1) A 5-week-old male C57BL/6J mouse prepared in Example 1.2 were used after a 2-week acclimatization process, and then adjustment of body weight for each group. From the time the mouse reached 7 weeks of age, obesity was induced with a high fat diet (HFD). The mice were fed ad libitum with a general feed or a high-fat diet feed for 16 weeks, and PBS and galactose were orally administered daily to each group. The input amount and the remaining amount of the feed were measured twice a week to calculate daily caloric intake, and the body weight was measured once a week at a designated time. For microbiome analysis, feces were collected as shown in FIG. 1 and analysis was requested to Macrogen Inc. Feces were collected after selecting five mice whose body weight was closest to the average. The number of animals in each group was set to 8. After 8 weeks of the experiment, metagenome analysis was performed by collecting feces from the 3rd group (HFD-PBS), the 5th group (HFD-Gal 100 mg/kg), and the 6th group (HFD-Gal 50 mg/kg). The results of the metagenomic analysis were obtained by requesting metagenome sequencing to Macrogen Co., Ltd. For the experimental results, significance was tested using the TTEST method, and when the P value was less than 0.05, that value was determined to be significant ((*)<0.05, (**)<0.01, (***)<0.001).

[1] = Measurement of body weight (weight gain) in mice on normal or high-fat diet; details: 16 weeks, oral daily, n=8
Procedure: A 5-week-old male C57BL/6J mouse prepared in Example 1.2 were used after a 2-week acclimatization process, and then adjustment of body weight for each group. From the time the mouse reached 7 weeks of age, obesity was induced with a high fat diet (HFD). The mice were fed ad libitum with a general feed or a high-fat diet feed for 16 weeks, and PBS and galactose were orally administered daily to each group. The input amount and the remaining amount of the feed were measured twice a week to calculate daily caloric intake, and the body weight was measured once a week at a designated time. During the experimental period (16 weeks) designed in Example 1.3, the body weight of the experimental animals were measured at a predetermined time every week before administration of galactose or PBS, and body weight change (weight gain) and survival rate were measured (allowed to euthanize if the body weight decreases to less than 20% of the initial body weight). The weight gain was calculated by setting the body weight (initial body weight) of the experimental animal at 7 weeks of age as 100% and then calculating the body weight measured at each time point as a relative value to the initial body weight.

Lactobacillus = experiment: Metagenome analysis of feces in high-fat diet induced obesity model: proportion of Lactobacillus; details: for Lactobacillus Average (%): feces after 8 weeks
Procedure: as §1

Alistipes = experiment: Metagenome analysis of feces in high-fat diet induced obesity model: proportion of Alistipes; details: for Alistipes Average (%): feces after 8 weeks
Procedure: as §1

[2] = Intraperitoneal glucose tolerance test
Procedure: The experimental animals were kept hungry (12-hour fasting) from 9:00 p.m. the day before the test to 9:00 a.m. the day of the test, and then a blood glucose test was performed. To keep a hungry condition, feed and straw litter were removed to induce fasting. A 10% (w/v) glucose (in PBS) solution sterilized by 0.2 μm filtration was prepared. After intraperitoneally administering 2 mg glucose/g, volume=body weight*20 (μl) for each individual, the mice were again put in the cage, and blood glucose levels were measured every 0, 30, 60, 90, and 120 minutes. The blood glucose tests were performed by collecting blood from the caudal vein. The intraperitoneal glucose tolerance test was performed 13 weeks after inducing obesity with a high-fat diet.

[3] = group 5: high fat diet, galactose 100 mg/kg oral daily
[4] = group 6: high fat diet, galactose 50 mg/kg oral daily
[5] = high fat diet, galactose-administered group vs PBS control

O=C[C@H](O)[C@@H](O)[C@@H](O)[C@H](O)CO [Galactose, galactose]
Akkermansia Average (%) (Akkermansia; [3]): 1.365%
Akkermansia Average (%) (Akkermansia; [4]): 0.135%
proportion of Akkermansia as compared with a control group (Akkermansia; [5]): increased
weight gain vs PBS-administered group ([1]; general diet group): no significant difference
weight gain vs PBS-administered group ([1]; high-fat diet feed group): significantly reduced
Lactobacillus Average (%) (Lactobacillus; [3]): 3.8375%
Lactobacillus Average (%) (Lactobacillus; [4]): 2.17%
proportion of Lactobacillus as compared with a control group (Lactobacillus; [5]): increased
Alistipes Average (%) (Alistipes; [3]): 1.0275%
Alistipes Average (%) (Alistipes; [4]): 1.9675%
proportion of Alistipes as compared with a control group (Alistipes; [5]): increased
blood sugar levels at 120 minutes ([2]; high-fat diet group, measured at 120 minutes after i.p. glucose): comparable to those in the normal diet group
blood glucose level vs control group (PBS-administered) ([2]; high-fat diet intake group (HD), 13 weeks after inducing obesity, 2 mg glucose/g i.p.): significantly decreased
blood glucose by galactose administration ([2]; normal diet intake group (ND), 2 mg glucose/g i.p., 12-hour fasting): decreased

Source: patent publication US20240207293A1, “COMPOSITION FOR IMPROVING INTESTINAL MICROBIAL POPULATION COMPRISING GALACTOSE” (Quorum Bio Co., Ltd., priority 2021, published 2024)
